Reference: PubChem BioAssay AID248 (DTP/NCI, 2004)
Values joined by “and” are separate entries in the source; they are usually repeats but may differ in a detail not shown here. Equal values may be shown once. Inconclusive results and toxic doses are left out. Cut-off read from the data, not from the text of the source: active = T/C of 150% or more; inactive = T/C below 125%.

Test system: L1210 leukemia ip in BDF1 mice, survival T/C
Experiment: NCI In Vivo Anticancer Drug Screen. Data for tumor model L1210 Leukemia (intraperitoneal) in B6D2F1 (BDF1) mice
Conditions: endpoint: mean survival time, higher = longer survival
How it was run: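 In this screen, tumor-bearing mice given compound are compared to those given vehicle, and their survival values are reported as a treated-to-control quotient.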

[1] = dose: 100.0 mg/kg/injection, schedule: Q01DX001 (ip), vehicle: saline
[2] = dose: 100.0 mg/kg/injection, schedule: Q04DX003 (ip), vehicle: saline
[3] = dose: 200.0 mg/kg/injection, schedule: Q01DX001 (ip), vehicle: saline
[4] = dose: 200.0 mg/kg/injection, schedule: Q04DX003 (ip), vehicle: saline
[5] = dose: 400.0 mg/kg/injection, schedule: Q01DX001 (ip), vehicle: saline
[6] = dose: 400.0 mg/kg/injection, schedule: Q04DX003 (ip), vehicle: saline
[7] = dose: 100.0 mg/kg/injection, schedule: Q04DX003 (ip), vehicle: Klucel (hydroxypropylcellulose) (HPC)
[8] = dose: 200.0 mg/kg/injection, schedule: Q04DX003 (ip), vehicle: Klucel (hydroxypropylcellulose) (HPC)
[9] = dose: 400.0 mg/kg/injection, schedule: Q04DX003 (ip), vehicle: Klucel (hydroxypropylcellulose) (HPC)
[10] = dose: 50.0 mg/kg/injection, schedule: Q01DX009 (ip), vehicle: saline with Tween-80
[11] = dose: 100.0 mg/kg/injection, schedule: Q01DX009 (ip), vehicle: saline with Tween-80
[12] = dose: 200.0 mg/kg/injection, schedule: Q01DX009 (ip), vehicle: saline with Tween-80
[13] = dose: 100.0 mg/kg/injection, schedule: Q04DX002 (ip), vehicle: Klucel (hydroxypropylcellulose) (HPC)
[14] = dose: 200.0 mg/kg/injection, schedule: Q04DX002 (ip), vehicle: Klucel (hydroxypropylcellulose) (HPC)
[15] = dose: 400.0 mg/kg/injection, schedule: Q04DX002 (ip), vehicle: Klucel (hydroxypropylcellulose) (HPC)
[16] = dose: 100.0 mg/kg/injection, schedule: Q01DX009 (ip), vehicle: Klucel (hydroxypropylcellulose) (HPC)
[17] = dose: 200.0 mg/kg/injection, schedule: Q01DX009 (ip), vehicle: Klucel (hydroxypropylcellulose) (HPC)
[18] = dose: 400.0 mg/kg/injection, schedule: Q01DX009 (ip), vehicle: Klucel (hydroxypropylcellulose) (HPC)
[19] = dose: 100.0 mg/kg/injection, schedule: Q04DX002 (ip), vehicle: saline with Tween-80
[20] = dose: 200.0 mg/kg/injection, schedule: Q04DX002 (ip), vehicle: saline with Tween-80
[21] = dose: 100.0 mg/kg/injection, schedule: Q01DX001 (ip), vehicle: carboxymethylcellulose (CMC)
[22] = dose: 200.0 mg/kg/injection, schedule: Q01DX001 (ip), vehicle: carboxymethylcellulose (CMC)
[23] = dose: 400.0 mg/kg/injection, schedule: Q01DX001 (ip), vehicle: carboxymethylcellulose (CMC)

Measured: T/C

CCOC(=O)C(=O)Cc1ccccc1[N+](=O)[O-]
inactive: dose: 100.0 mg/kg/injection, schedule: Q01DX001 (ip), vehicle: Klucel (hydroxypropylcellulose) (HPC) 96 % of control | dose: 200.0 mg/kg/injection, schedule: Q01DX001 (ip), vehicle: Klucel (hydroxypropylcellulose) (HPC) 102 % of control | dose: 400.0 mg/kg/injection, schedule: Q01DX001 (ip), vehicle: Klucel (hydroxypropylcellulose) (HPC) 95 % of control

O=C(Cc1ccccn1)c1ccccn1
inactive: [1] 98 % of control | [2] 100 % of control | [3] 117 % of control | [4] 102 % of control | [5] 119 % of control | [6] 98 % of control

CCOC(=O)CCC(NC(=O)c1ccc2c(c1)CCCN2C=O)C(=O)OCC (configuration not stated)
inactive: [7] 104 % of control | [8] 103 % of control | [9] 103 % of control

CC1CC(=O)C(CCC#N)=C(Cl)C1 (configuration not stated)
inactive: [10] 100 % of control | [11] 96 % of control | [12] 96 % of control

CN1Cc2ccccc2/C=C\c2ccccc21
inactive: [13] 103 % of control | [14] 106 % of control | [15] 100 % of control

CC(=O)Nc1ccc(C(=O)O)c([N+](=O)[O-])c1
inactive: dose: 100.0 mg/kg/injection, schedule: Q01DX009 (ip), vehicle: saline 100 % of control | [2] 104 % of control | dose: 200.0 mg/kg/injection, schedule: Q01DX009 (ip), vehicle: saline 94 % of control | [4] 104 % of control | dose: 400.0 mg/kg/injection, schedule: Q01DX009 (ip), vehicle: saline 93 % of control | [6] 94 % of control

COc1ccccc1OC(=O)Nc1ccccc1F
inactive: [11] 97 % of control | [12] 96 % of control | dose: 400.0 mg/kg/injection, schedule: Q01DX009 (ip), vehicle: saline with Tween-80 118 % of control

CCC(Cl)COP(=O)(OCC(Cl)CC)C(CC)OP(=S)(OCC(Cl)CC)OCC(Cl)CC (configuration not stated)
inactive: dose: 87.5 mg/kg/injection, schedule: Q01DX009 (ip), vehicle: Klucel (hydroxypropylcellulose) (HPC) 95 % of control | dose: 175.0 mg/kg/injection, schedule: Q01DX009 (ip), vehicle: Klucel (hydroxypropylcellulose) (HPC) 99 % of control

Nc1ccnc(SCc2ccccc2)n1
inactive: dose: 100.0 mg/kg/injection, schedule: Q01DX001 (ip), vehicle: saline with Tween-80 90 % of control | dose: 200.0 mg/kg/injection, schedule: Q01DX001 (ip), vehicle: saline with Tween-80 93 % of control | dose: 400.0 mg/kg/injection, schedule: Q01DX001 (ip), vehicle: saline with Tween-80 93 % of control

C=C(C)C1Cc2c(ccc3c(=O)c4c(oc23)COc2cc(OC)c(OC)cc2-4)O1 (configuration not stated)
inactive: [16] 90 % of control | [17] 93 % of control | [18] 95 % of control

CC(C)(N)C(=O)O
inactive: dose: 100.0 mg/kg/injection, schedule: Q04DX003 (ip), vehicle: saline sonified 101 % of control | dose: 200.0 mg/kg/injection, schedule: Q04DX003 (ip), vehicle: saline sonified 98 % of control | dose: 400.0 mg/kg/injection, schedule: Q04DX003 (ip), vehicle: saline sonified 98 % of control

CC(C)(C)NC(=O)Nc1cccc2c(O)cccc12
inactive: [19] 95 % of control | [20] 95 % of control | dose: 400.0 mg/kg/injection, schedule: Q04DX002 (ip), vehicle: saline with Tween-80 98 % of control

C=C(CCCC)c1ccccc1
inactive: [10] 102 % of control | [11] 91 % of control | [12] 94 % of control

O=c1cc(N2CCOCC2)nc2ccccn12
inactive: [21] 100 % of control | [22] 96 % of control | [23] 102 % of control

NCCC1CNCCN1.[Cl][Pd]([Cl])([Cl])[Cl] (configuration not stated)
inactive: dose: 12.5 mg/kg/injection, schedule: Q01DX001 (ip), vehicle: saline 108 % of control | dose: 25.0 mg/kg/injection, schedule: Q01DX001 (ip), vehicle: saline 108 % of control | dose: 50.0 mg/kg/injection, schedule: Q01DX001 (ip), vehicle: saline 103 % of control | dose: 100.0 mg/kg/injection, schedule: Q01DX001 (ip), vehicle: DMSO 98 % of control

CCCCNC(=O)Nc1ccc(Cl)cc1C(=O)c1ccccc1
inactive: [13] 105 % of control | [14] 102 % of control | [15] 94 % of control

CC(=O)Nc1c(I)cc2c(c1I)Cc1cc([N+](=O)[O-])ccc1-2
inactive: [21] 98 % of control | [22] 104 % of control | [23] 93 % of control

CCCc1cc(CN2CCOCC2)c(O)c(CN2CCOCC2)c1O
inactive: [1] 91 % of control | [3] 93 % of control | [5] 95 % of control

O=C(SCCSC(=O)c1ccccc1)c1ccccc1
inactive: dose: 75.0 mg/kg/injection, schedule: Q04DX003 (ip), vehicle: other 98 % of control | dose: 150.0 mg/kg/injection, schedule: Q04DX003 (ip), vehicle: other 106 % of control | dose: 300.0 mg/kg/injection, schedule: Q04DX003 (ip), vehicle: other 112 % of control

Cc1ccc(S(=O)(=O)C[n+]2ccccc2)cc1
inactive: [19] 98 % of control | [20] 94 % of control

COc1nc(N)nc2c1ncn2C1OC(CO)CC1O (configuration not stated)
inactive: dose: 50.0 mg/kg/injection, schedule: Q01DX001 (ip), vehicle: carboxymethylcellulose (CMC) 93 % of control | [21] 93 % of control | [22] 93 % of control | [23] 96 % of control

CN1C(=O)C2CCCN2C(=O)C1(C)O (configuration not stated)
inactive: dose: 100.0 mg/kg/injection, schedule: Q04DX002 (ip), vehicle: saline 90 % of control | dose: 200.0 mg/kg/injection, schedule: Q04DX002 (ip), vehicle: saline 97 % of control | dose: 400.0 mg/kg/injection, schedule: Q04DX002 (ip), vehicle: saline 97 % of control

O=C(/C(=N/Nc1ccccc1)c1ccccc1)c1ccccc1
inactive: dose: 25.0 mg/kg/injection, schedule: Q04DX003 (ip), vehicle: Klucel (hydroxypropylcellulose) (HPC) 104 % of control | dose: 50.0 mg/kg/injection, schedule: Q04DX003 (ip), vehicle: Klucel (hydroxypropylcellulose) (HPC) 95 % of control | [16] 108 % of control | [7] 100 % of control and 103 % of control | [17] 104 % of control | [8] 97 % of control | [18] 104 % of control | [9] 95 % of control

CC1(C)C2CCC1(CBr)C(=O)C2 (configuration not stated)
inactive: [14] 100 % of control

CCC(CC)C(=O)NC(=O)NC(C)=O
inactive: dose: 75.0 mg/kg/injection, schedule: Q01DX001 (ip), vehicle: Klucel (hydroxypropylcellulose) (HPC) 91 % of control | dose: 150.0 mg/kg/injection, schedule: Q01DX001 (ip), vehicle: Klucel (hydroxypropylcellulose) (HPC) 102 % of control | dose: 300.0 mg/kg/injection, schedule: Q01DX001 (ip), vehicle: Klucel (hydroxypropylcellulose) (HPC) 88 % of control

CC(C)NC(=O)C1C2CC3OC(=O)C1C3C2 (configuration not stated)
inactive: [2] 98 % of control | [4] 98 % of control and 88 % of control | [6] 101 % of control and 95 % of control
